Entries after “also recorded” stand apart in the source; their conditions may differ.
Legend:
[1] = test system: SIVMAC 251; assay: SIVMAC 251 infected rhesus macaques; format: in vivo; conditions: end-stage disease
From the text: Certain strains of SIV produce an AIDS-like illness in susceptible monkeys. Among them SIVMAC 251 induces disease in rhesus monkeys similar to AIDS in humans only with much greater rapidity.^174 Therapy with purified MA of 3 monkeys with end-stage disease infected 13-14 mos earlier was initiated when the animals were losing weight, highly viremic (plasma virus 0.5 to 3×10^6 copies of SIV RNA/ml by NASBA), and developing pancytopenia. […] In contrast, most untreated animals died by this period. Though the limitation of animal number precludes strong conclusions related to survival.
Far more impressive were experiments performed soon after infection (3 weeks). In these experiments, crude urinary preparations containing MA, but not crude fractions lacking MA, were inoculated subcutaneously. Using a 10^4.5 TCID50 of cell free SIVmac 251, the characteristic rise in SIV p27, reduction of CD4+ T-cells, and weight loss, which occurred in the untreated animals, was prevented in MA treated animals. The untreated animals died before 6 mos. […] However, stopping therapy led to rapid onset of virus production and development of AIDS-like disease.

[2] = test system: HIV-1
Procedure: Virus (MOI of 0.001) was added to 10^6 cells in RPMI-1640 with 10% FCS. One hour later the various polypeptides were added once. The cells cultured for 3 days with 5 ug PHA and 20 i.m. of II-2/ml at 37°, after which virus was estimated by determining p24 (HIV-1) or p27 (SIV) (Organon-Teknika).
The effect of native and synthetic MA on HIV-1 infection in vitro was evaluated using PHA and II-2 stimulated primary peripheral blood cells (PBMC), CD4+ T-cells enriched fractions from PBMC, and CD14+ macrophage enriched fractions. Infection was with HIV-1 IIIB (PBMC and CD4+ T-cells), HIV-1 Ba-L (macrophages), and two primary HIV-1 isolates not passaged in any cell line (PBMC).

[3] = test system: B16 melanoma and Lewis lung (LL) carcinoma; assay: Metastatic B16 melanoma and Lewis lung carcinoma in C57/BL mice; format: in vivo; conditions: MAS1 or MAS2 0.1 ug or 1.0 ug
Procedure: B16 melanoma and Lewis lung (LL) carcinoma cells were first shown to be susceptible to the pro-apoptotic effects of MA (FIG. 6, Panels C and D) at the same dose range used with cultured human tumor cells. The tumor cells grown in standard culture conditions were used to generate metastatic cancers in pathogen-free 6-8 week old C57/BL mice (Charles River). In one set of experiments, the animals were treated with MAS1 or MAS2 at two doses, 0.1 ug or 1.0 ug either in a pre-treatment protocol (two subcutaneous inoculations 24 and 48 hrs before transplanting the tumor cells).

[4] = test system: human bone marrow stem cells; assay: Engraftment of ex vivo expanded hematopoietic progenitor cells in BNX-XID mice
From the text: The inventors also investigated the effect of MA on engraftment of human bone marrow stem cells [CD34^+, CD38″ cells, long term cultures after 4 mos, and stromal free cultures] ex vivo expanded hematopoietic progenitor cells in Rats irradiated [Sprague DAwley, 450 Rad] and immunodeficient mice [SCID or BNX-XID mice].
Measurement of short-term hematopoietic reconstitution kinetics and long term repopulating ability. Just prior to implantation, SCID, BNX-XID-immunodeficient mice and Sprague Dawley rats were exposed to 450 rad total body γ-irradiation. […] But the SCID and BNX-XID immunodeficient mice were repopulated by the cultured, treated human cells.

[5] = test system: human carcinoma and sarcoma cells (PC3, KS Y-1); assay: Xenotransplanted human tumors in immunodeficient mice; format: in vivo
Procedure: In the first set of experiments, MA was tested against tumors formed by xenotransplantation of various human carcinoma and sarcoma cells in immunodeficient mice. […] […] Three different synthetic forms of MA were used: full length (MAS3) and the previously described MAS1 and MAS2 (Panel C).

[6] = test system: HIV-1 transgene expression; assay: HIV-1 transgenic rats; format: in vivo
From the text: Because of the extraordinary effects of MA in the mouse modes, we were concerned that the results might be peculiar to the model. Consequently, an HIV-1 transgenic rat model was developed. An additional advantage of the rat model is the larger size of the animals, enabling direct inoculation of MA into the developing pups rather than therapy being indirect (the lactating mother) and limited to the lactation phase. Thus, the transgenic rats can be followed and treated much longer.
Like the transgenic mice, the transgenic rats contain HIV-1 provirus PNNL 4-3, again deleted in gag/pol, and also develop hyperkeratosis. Additionally, they develop tissue fibrosis, inflammatory changes, and some histopathology more similar to human AIDS than in the mouse model, but unlike the HIV-1 transgenic mice the effect is usually not lethal. The changes correlate with expression of HIV-1 proteins. The transgenic rats are more fully described in copending U.S. patent application Ser. No. 09/058,113, by Bryant et al., filed Apr. 9, 1998, entitled “HIV Transgenic Animals and Uses Therefor,” the entire disclosure of which is incorporated herein by reference.
Inoculation (subcutaneous) of a 250-300 gm mother with 300 pmoles of MA for 10 days began after birth of the pups. […]

[7] = test system: primary human tumor cells; assay: Short-term cultured primary human tumor cells, growth and apoptosis; format: cell-based; conditions: 200 ng/ml; 3 days culture; 10% serum
From the text: Because cell lines might be more susceptible to growth inhibition and apoptosis, the effects of MA on short-term cultured human tumor cells were investigated. The cells were obtained from biopsied specimens and immediately cultured (primary cultures). The results were similar to the results with tumor cell lines. […] FIG. 3, Panels A and B are representative results with primary breast and prostate carcinomas respectively. These pro-apoptotic effects of MA on human tumor cells were with 10% serum rather than the lower concentrations sometimes used to make cells more susceptible to apoptosis.
More extensive studies of primary human tumor cells were carried out utilizing confocal microscopy.
With the exception of the kidney carcinoma, which was a biopsy sample direct from the tumor, the samples were from pleural effusions which developed after metastasis to the lung. The breast, prostate, and colon carcinomas were freshly obtained and immediately cultured, whereas the lung and kidney carcinomas went through 22 and 18 passes respectively before they were used in these studies. All cells were examined after 3 days culture in the presence or absence of MA (200 ng/ml) or other treatments. […]

VVCNYRDVRFESIRLPGCPRGVNPVVSYAVALSCQ [MA]
weight and T-cell number [1]: stabilization and in some instances even increase
change in SIV titer ([1]; 0.2 mg/kg 3 times weekly, 6 mos): no significant change
deaths in observation period ([1]; 6 mos): none of the 3 animals died
inhibition of primary HIV-1 isolates in PBMCs [2]: inhibited replication
IC50 ([2]; read-out: concentration at which virus production was inhibited 50%, IIIB and Ba-L, p24 in extracellular fluid): ~30 nM
pro-apoptotic effect on neoplastic cells in vivo [3]: potent pro-apoptotic effect
CD4 [4]: 3%
CD14 [4]: 1%
CD34 [4]: 37%
tumor regression ([5]; 300-500 ng/day (about 100-200 pmoles) for 2 to 3 weeks): complete tumor regression
effect on xenotransplanted tumor (qualitative) ([5]; controls at equivalent and higher molar concentrations): marked tumor regression; also recorded: KS tumor abolished
inhibition of tumor growth in vivo ([5]; mouse, in vivo): 60-100%
blood vessel formation / angiogenesis ([5]; thin sections of the tumors): reduction in blood vessel formation
survival and development ([6]; 300 pmoles to mother for 10 days, then direct subcutaneous inoculation): survived, developed normally
transgene expression ([6]; rat, in vivo): markedly reduced
growth inhibition and apoptosis of primary human tumor cells [7]: inhibited growth and induced apoptosis; also recorded: Rapid induction of apoptosis
